Where two headings read alike, the source gives them in different places.
Tests used:
Type in all cases: cell-based
[1] = tested on: RS1-10; assay: Dose-response profiling assay, RS1-10 Flp-In-293 cell line; conditions: 18 hours, FIGS. 9D-9F
Experimental: Single-copy insertion of an switch construct and subsequent cell-line generation was performed in Flp-In-293 cells according to manufacturer's protocols. The RS1-10 sequence fused to a Firefly Luciferase gene was cloned into a Flp-In compatible pcDNA5/FRT expression vector with a CMV promoter and BGH polyadenylation signal. Resulting Flp-In cell line carried a single-copy expression cassette (RSwitch-controlled) integrated into the genome. The RS1-10 Flp-In cell line was cultured in DMEM+10% FBS, collected after trypsinization, and then dispensed into 96-well plates (cell culture-treated). Each well of the plate was seeded with 1.0×10^5 cells in 100 μL culture medium. Subsequently, either DMSO vehicle or a splice modulator compound at specified doses was added to the wells of the plate. Triplicate wells were used for each condition tested in the experiment. Plates were then incubated for 18 hours in a tissue culture incubator (5% CO2, 37° C.). Endpoint analysis was performed by adding 100 uL of a Luciferase substrate, such as Steady-Luc Firefly Luciferase substrate, to each well of the assay plate. The liquid contents of each was transferred to a 96-well plate, mixed again for 2 min on an orbital shaker, and incubated at room temperature for 5 min. Finally, the luminescent signal from each well was measured with a plate reader. Each plotted data point on a graph in a figure represents a mean of 3 wells+/−standard deviation normalized to vehicle controls. A nonlinear regression curve fit of the plotted data points was generated in graphing software.

[2] = tested on: RS2-3 minigene (Firefly Luciferase), HEK-293T cells; assay: Luciferase induction assay, RS2-3 with splice modulator compounds in HEK-293T cells; conditions: Homo sapiens
Experimental: (§1) HEK-293T cells were cultured in DMEM+10% FBS, collected after trypsinization, and then dispensed into 96-well plates (cell culture-treated). Each well of the plate was seeded with 1.0×10^5 cells in 100 μL culture medium. After a 1-hour incubation in a tissue culture incubator (5% CO2, 37 degrees C.), plasmid DNA was complexed with a transfection reagent, such as Lipofectamine 3000, and added to respective wells on the plate. Each well received an equivalent of 100 ng of plasmid DNA complexed with 0.15 μL Lipofectamine. Triplicate wells were used for each condition tested in the experiment. The plasmid utilized in the experiment encoded a CMV promoter upstream of the RS2-3 variant that controlled the expression of a Firefly Luciferase gene followed by a SV40 polyadenylation signal. After a 10-minute incubation at room temperature, either DMSO vehicle or specified compound at specified dose was added to the wells of the plate. Plates were then incubated for 18 hours in a tissue culture incubator. Endpoint analysis was performed by adding 100 uL Steady-Luc Firefly Luciferase substrate to each well of the assay plate. After mixing, the liquid contents of each was transferred to a 96-well plate, mixed again for 2 min on an orbital shaker, and incubated at room temperature for 5 min. Finally, the luminescent signal from each well was measured with a with PerkinElmer Envision plate reader. The results of this assay show RS2-3 responded to the majority of the splice modulator compounds used (FIG. 13C) Bars represent mean+/−standard deviation of 3 wells normalized to vehicle controls.

[3] = tested on: RS1-10 minigene (Firefly Luciferase), HEK-293T cells; assay: Luciferase induction assay, RS1-10 with splice modulator compounds in HEK-293T cells; conditions: Homo sapiens
Experimental: as §1, with “of the RS I-10 variant that” for “of the RS2-3 variant that”, “assay show RS1-10 responded to” for “assay show RS2-3 responded to”, “compounds used in a dose responsive manner (FIG. 9C).” for “compounds used (FIG. 13C)”, “manner (FIG. 9C). Bars represent” for “used (FIG. 13C) Bars represent”

[4] = tested on: RS3-13 minigene (Firefly Luciferase), HEK-293T cells; assay: Luciferase induction assay, RS3-13 with splice modulator compounds in HEK-293T cells; conditions: Homo sapiens
Experimental: as §1, with “RS3-13” for “the RS2-3 variant”, “RS3-13” for “RS2-3”, “14D)” for “13C)”

[5] = RS2-3, 100 nM, 18 hours, n of 3, read-out: Mean fold-induction of luciferase (relative to vehicle control)
[6] = RS2-3, 1,000 nM, 18 hours, n of 3, read-out: Mean fold-induction of luciferase (relative to vehicle control)
[7] = RS1-10, 100 nM, 18 hours, n of 3, read-out: Mean fold-induction of luciferase (relative to vehicle control)
[8] = RS1-10, 1,000 nM, 18 hours, n of 3, read-out: Mean fold-induction of luciferase (relative to vehicle control)
[9] = RS3-13, 100 nM, 18 hours, n of 3, read-out: Mean fold-induction of luciferase (relative to vehicle control)
[10] = RS3-13, 1,000 nM, 18 hours, n of 3, read-out: Mean fold-induction of luciferase (relative to vehicle control)
[11] = 18 h, read-out: Mean fold-induction of luciferase (relative to vehicle control)

| Compound | fold-induction of luciferase signal, dose response [1] | fold induction at 0.1 µM [2, 5] | fold induction at 1 µM [2, 6] | fold induction at 0.1 µM [3, 7] | fold induction at 1 µM [3, 8] | fold induction at 0.1 µM [4, 9] | fold induction at 1 µM [4, 10] | fold induction at 0.1 µM [2, 11] | fold induction at 1 µM [2, 11] | fold induction at 0.1 µM [3, 11] | fold induction at 1 µM [3, 11] | fold induction at 0.1 µM [4, 11] | fold induction at 1 µM [4, 11] |
| --- | --- | --- | --- | --- | --- | --- | --- | --- | --- | --- | --- | --- | --- |
| Cn1cc2cc(-c3ccc(-c4ccc(C5CN(C6CCOCC6)C5)nn4)c(O)c3)ccc2n1 [22 A, 5-(2-methyl-2H-indazol-5-yl)-2-{6-[1-(oxan-4-yl)azetidin-3-yl]pyridazin-3-yl}phenol] | increase in fold-induction of luciferase signal with increasing concentrations | – | – | – | – | – | – | – | – | – | – | – | – |
| CCN1CC(c2ccc(-c3ccc(-c4cc(C)c5nn(C)cc5c4)cc3O)nn2)C1 [34 A, 5-(2,7-dimethyl-2H-indazol-5-yl)-2-[6-(1-ethylazetidin-3-yl)pyridazin-3-yl]phenol] | increase in fold-induction of luciferase signal with increasing concentrations | – | – | – | – | – | – | – | – | – | – | – | – |
| Cc1cn2nc(-c3ccc(-c4ccc(C5CNC5)nn4)c(O)c3)cc(C)c2n1 [Compound 3A] | – | 2.86 | 17.6 | 31.7 | 94.7 | 1.81 | 10.2 | – | – | – | – | – | – |
| Cc1cc(-c2ccc(-c3ccc(C4CNC4)nn3)c(O)c2)cc2cn(C)nc12 [Compound 6A] | – | 2.54 | 13.9 | 29.4 | 69.6 | 1.69 | 7.94 | – | – | – | – | – | – |
| Cc1cn2cc(-c3cc(O)c(-c4ccc(C5CNC5)nn4)cc3F)cc(F)c2n1 [Compound 8A] | – | 4.1 | 16 | 41.5 | 79.2 | 2.11 | 9.79 | – | – | – | – | – | – |
| Cc1cn2cc(-c3ccc(-c4ccc(C5CNC5)nn4)c(O)c3F)cc(F)c2n1 [Compound 10A] | – | 11.1 | 29.2 | 65.9 | 96 | 10.1 | 43.6 | – | – | – | – | – | – |
| Cc1cn2cc(-c3ccc(-c4ccc(C5CN(C(C)C)C5)nn4)c(O)c3)cc(F)c2n1 [Compound 15A] | – | 17 | 39.4 | 79 | 82 | 20.6 | 54.5 | – | – | – | – | – | – |
| CCN1CC(c2ccc(-c3ccc(-c4cn5cc(C)nc5c(C)n4)cc3O)nn2)C1 [Compound 32A] | – | 5.9 | 23.3 | 53.5 | 83.1 | 3.24 | 23 | – | – | – | – | – | – |
| Cc1cn2cc(-c3ccc(-c4ccc(C5CN(C6CCOC(C)(C)C6)C5)nn4)c(O)c3)cc(F)c2n1 (centres unmarked) [Compound 86A] | – | 7.86 | 27.7 | 56.1 | 85.1 | 7.54 | 31.3 | – | – | – | – | – | – |
| Cc1cn2cc(-c3ccc(-c4ccc(C5CN(Cc6cocn6)C5)nn4)c(O)c3)cc(F)c2n1 [Compound 101A] | – | 8.48 | 31.5 | 57.5 | 86.8 | 6 | 34.2 | – | – | – | – | – | – |
| Cc1cn2cc(-c3nc(=O)n4cc(N5CCNCC5)cc(C)c4n3)cc(F)c2n1 [Compound 108B] | – | 1.65 | 1.76 | 1.16 | 1.43 | 1.41 | 1.66 | – | – | – | – | – | – |
| Cc1cn2cc(-c3nc(=O)n4cc(C5=CCNCC5)ccc4n3)cc(F)c2n1 [Compound 111B] | – | – | – | – | – | – | – | 1.6 | 2.97 | 3.06 | 48.4 | 1.32 | 1.63 |
| Cc1cn2cc(-c3nc(=O)n4cc(N5CCN[C@@H](C)C5)cc(C)c4n3)cc(F)c2n1 [Compound 117B] | – | 15.2 | 39.9 | 52.1 | 73.5 | 22.8 | 55.6 | – | – | – | – | – | – |
| Cc1cn2cc(-c3nc(=O)n4cc(N5CCN[C@@H](C)C5)cc(F)c4n3)cc(C)c2n1 [Compound 121B] | – | 9.41 | 28.8 | 24.6 | 73.5 | 9.95 | 46 | – | – | – | – | – | – |
| Cc1cn2cc(-c3nc(=O)n4cc(N5CCNCC5)ccc4n3)cc(C)c2n1 [Compound 126B] | – | 5.18 | 17.8 | 2.06 | 41.5 | 3.46 | 25.2 | – | – | – | – | – | – |
| Cc1cc2cc(-c3nc(=O)n4cc(N5CCNC(C)(C)C5)cc(F)c4n3)cc(C)n2n1 [Compound 135B] | – | 7.61 | 14.7 | 16.1 | 48.8 | 5.99 | 16.1 | – | – | – | – | – | – |
| Cc1cc2cc(-c3ccc(-c4ccc(C5CN(C6CCOCC6)C5)nn4)c(O)c3)ccn2n1 [Compound 192A] | – | 4.97 | 22.7 | 51.3 | 70.8 | 2.18 | 13.4 | – | – | – | – | – | – |

Source: US20260327655A1, “SMALL-MOLECULE REGULATED ALTERNATIVE SPLICING” (priority 2023, published 2026)
